In experiment [1] the test system is bulk cancer cells (anaplastic ependymoma, WHO grade III). The experiment is described as follows: MTT assay, bulk cancer cells, Example 2 anaplastic ependymoma. The format is cell-based, human. The note with it: FIG. 9. The procedure: (§1) Chemosensitivity assay. Sensitivity and resistance to chemotherapy was assessed using an MTT assay on 1×10^3 cells plated in 5 replicas into 96-well plates. Briefly, equal number of bulk of tumor cells grown in monolayer and cancer stem-like cells CD133(+) three-dimensionally grown in the bioreactor, were plated separately in 96-well dishes and incubated at 37° C. for 24-hours. Then the cells were challenged for a 1-hour pulse with a panel of anticancer drugs as indicated by the oncologist. Each anticancer drug was tested in a range of doses including the clinically relevant dose. An MTT assay was performed 24-hours following chemotherapy treatment to assess cell viability as previously described. A dose response chart was developed in which samples were scored as responsive (60-100% cell kill), moderately responsive (40-60% cell kill), low to moderate responsive (20-40% cell kill), low responsive (10-20% cell kill), and non-responsive (0-10% cell kill).
(§2) Similar to the experiments described herein above, the cancer cell sample was initially cultured as a suspension and the cancer cells were immunophenotyped by flow cytometer using anti-CD133 (Milteny Biotech, Auburn, Calif.), -CD34 (Milteny Biotech, Auburn, Calif.), -CD38 (Milteny Biotech, Auburn, Calif.), -CD44 (BD Bioscience, Sparks, Md.), -CD24 (Milteny Biotech, Auburn, Calif.), -CXCR4 (Milteny Biotech, Auburn, Calif.), -OCT3/4 (BD Bioscience, Sparks, Md.), and -Nanog (BD Bioscience, Sparks, Md.).
(§3) Then, to then expand the immature cancer stem-like cell population of CD133+ cells present within the ependymoma primary culture, the ependymoma cells were grown in a rotating vessel, as describe herein above and as previously described. To assess the efficacy of various chemotherapeutic agents on the cancer cell sample, an MTT assay was the performed as also described herein.

Experiment [2] concerns cancer stem-like cells (reoccurrence of anaplastic ependymoma). Kind of experiment: MTT assay, cancer stem-like cells from the reoccurrence of the Example 1 ependymoma. The format is cell-based, human. The note with it: reoccurrence biopsy, FIG. 6. The procedure: (§4) Three-Dimensional Bioreactor Cell Culture. A hydrodynamic focusing bioreactor (HFB) (Celdyne, Houston Tex.) was used as previously described to proliferate cancer stem-like cells. Culture media, oxygenation, speed, temperature and CO2 were kept consistently constant for ten days. In certain instances, cancer stem-like cells were cultured in the HFB and exposed for 2 to 6 hours with ozone (O3) levels at levels of 0.08 to 0.40 PPM to cause a fluctuation in the cellular redox environment (redox cycle). Ozone was generated with two OREC Model OZONEV1-O ozonizers (Ozone Research and Equipment Corp., Phoenix, Ariz.), with compressed air used as a source of oxygen, and the concentration of ozone within the chambers was monitored throughout the exposure with three Dasibi 1003 AH ambient-air ozone monitors (Dasibi Environmental Corp., Glendale, Calif.). Cells were then counted and 1×10^6 cells were placed in the rotating vessel set at 25 rpm with airflow set at 20% for […]. Cells were then removed and counted again using trypan blue exclusion to determine cellular viability and cell number and plated in 96 wells for chemosensitivity testing. The cells were also reacted with florescent antibodies for phenotypic characterization.
(§5) Chemosensitivity assay. Sensitivity and resistance to chemotherapy was assessed using an MTT assay on 1×10^3 cells plated in 5 replicas into 96-well plates. […]

Experiment [3] concerns cancer stem-like cells (anaplastic ependymoma, WHO grade III). Kind of experiment: MTT assay, cancer stem-like cells, Example 2 anaplastic ependymoma. The experiment is classed as cell-based, human. Particulars: FIG. 9. The procedure: as §4, §1, §2, §3
Experiment [4] has as its system bulk cancer cells (reoccurrence of anaplastic ependymoma). Kind of experiment: MTT assay, bulk cancer cells from the reoccurrence of the Example 1 ependymoma. The experiment is classed as cell-based, human. Particulars: reoccurrence biopsy, FIG. 6. The procedure:
as §1

Experiment [5] concerns CD133(+) cancer stem-like cells grown in the HFB (ependymoma). The experiment is described as follows: MTT chemosensitivity assay, cancer stem-like cells of the Example 1 ependymoma sample. The experiment is classed as cell-based, human. The note with it: 1-hour pulse, MTT 24-hours after treatment, FIG. 5. As for the experimental part: as §4, §1
To then expand the immature cancer stem-like cell population of CD 133+ cells present within the ependymoma primary culture, the ependymoma cells were grown in a rotating vessel, as previously described. Briefly, 1×10^6 of the ependymoma cells from a monolayer culture were grown for ten days using a Hydrodynamic Focusing Bioreactor (HFB) (Celdyne, Houston, Tex.) at 25 rpm with airflow set at 20%, and culture media, oxygenation, speed, temperature and CO2 were kept consistently constant for ten day period. Following the ten day period, cells were then removed and counted again from the HFB, and trypan blue exclusion was used to determine cellular viability and cell number. The cells were also reacted with florescent antibodies for phenotypic characterization.
(§6) To assess the efficacy of various chemotherapeutic agents on the cancer cell sample collected in Example 2, an MTT assay was performed on […] plated in 5 replicas into 96-well plates. Briefly, equal number of the bulk cancer cells grown in a monolayer and the CD133(+) cancer stem-like cells grown in the HFB were plated separately in 96-well dishes and incubated at 37° C. for 24-hours. Then, each of the cell cultures were challenged for a 1-hour pulse with various chemotherapeutic agents, including cisplatin, oxaliplatin, arabinoside-C, VP-16, busulfan, methotrexate, CPT-11, and doxorubicin. Each chemotherapeutic agent was tested in a range of doses including their respective clinically relevant doses.

Experiment [6] deals with ependymoma cells grown in a monolayer (bulk cancer cells). The experiment is described as follows: MTT chemosensitivity assay, bulk cancer cells of the Example 1 ependymoma sample. The format is cell-based, human. Particulars: 1-hour pulse, MTT 24-hours after treatment, FIG. 5. The procedure:
Single Cell Suspension and Primary Cell Culture. Single-cell suspensions from the ependymoma biopsy was prepared using the gentleMACS™ Dissociator (Miltenyi, Auburn, Calif.), and C Tubes using a standardized, semi-automated protocol based on a combination of mechanical tissue disruption and incubation with a 50% solution 0.025% trypsin and Accutase (Innovative Cell Technologies, San Diego, Calif.). Cells were serially plated in 24-well, 12-well, 6-well, 10-cm treated dishes and cultured to subconfluence in RPMI-1640 medium supplemented with 5% irradiated, heat inactivated, defined fetal bovine serum (Thermofisher/Hyclone), and 50 U of penicillin and 5 μg of streptomycin/mL of medium (Thermofisher/Mediatech).
as §1, §6
The MTT assay was then performed 24-hours following the chemotherapy treatment to assess cell viability. A dose response chart was developed in which samples were scored as responsive (60-100% cell kill), moderately responsive (40-60% cell kill), low to moderate responsive (20-40% cell kill), low responsive (10-20% cell kill), and non-responsive (0-10% cell kill). This assessment was independently performed for both the bulk cancer cells and the cancer stem-like cells of the ependymoma cancer cell sample.

The test system of a further experiment is medulloblastoma cells. Kind of experiment: MTT assay, Example 5 medulloblastoma cells. The experiment is classed as cell-based, human. Particulars: FIG. 15. The procedure:
as §1

Experiment [7] concerns cancer stem-like cells (IDH-1 negative glioblastoma, WHO grade IV). Kind of experiment: MTT assay, cancer stem-like cells, Example 4 IDH-1 negative glioblastoma. The format is cell-based, human. Particulars: FIG. 13. As for the experimental part: as §4, §5
Experiment [8] has as its system bulk cancer cells (IDH-1 negative glioblastoma). The experiment is described as follows: MTT assay, bulk cancer cells, Example 3 IDH-1 negative glioblastoma. Particulars: FIG. 11. The experiment is classed as cell-based, human. As for the experimental part:
as §1

In experiment [9] the test system is bulk cancer cells (IDH-1 negative glioblastoma, WHO grade IV). The experiment is described as follows: MTT assay, bulk cancer cells, Example 4 IDH-1 negative glioblastoma. The experiment is classed as cell-based, human. Particulars: FIG. 13. As for the experimental part: as §1
Experiment [10] deals with intradural, extramedullary anaplastic diffuse spinal ependymoma, WHO grade III. The experiment is described as follows: Clinical course of the Example 1 subject under treatment. The format is in vivo, human. The note with it: recurring spinal ependymoma.
Experiment [11] has as its system cancer stem-like cells (IDH-1 negative glioblastoma). Kind of experiment: MTT assay, cancer stem-like cells, Example 3 IDH-1 negative glioblastoma. The format is cell-based, human. The note with it: at the concentration tested, FIG. 11. As for the experimental part:
as §4, §5

`S=C=NCc1ccccc1` [BITC, benzyl isothiocyanate]: the “sensitivity to chemotherapy (MTT cell viability)” value (“sensitivity to chemotherapy” for short) in [1] is reported as “not sensitive”; in experiment [2] it was “sensitive”; in [3], “not sensitive”; in experiment [4], “sensitive”.
As to `CCc1c2c(nc3ccc(OC(=O)N4CCC(N5CCCCC5)CC4)cc13)-c1cc3c(c(=O)n1C2)COC(=O)[C@]3(O)CC` [CPT-11, irinotecan], the “sensitivity to chemotherapy” value in experiment [1] is reported as “not sensitive”; in [5], “moderate chemosensitivity”; in [3] it was “not sensitive”; in experiment [6], “sensitive”.
For the compound `COc1cc([C@@H]2c3cc4c(cc3[C@@H](O[C@@H]3O[C@@H]5CO[C@@H](C)O[C@H]5[C@H](O)[C@H]3O)[C@H]3COC(=O)[C@H]23)OCO4)cc(OC)c1O` [VP-16, etoposide], the “effectiveness at treating the medulloblastoma cells (MTT)” value with medulloblastoma cells is on record as “effective”. Also, the “sensitivity to chemotherapy” value in experiment [5] and in experiment [6] was “completely not responsive” in each case.
`Nc1ccn([C@@H]2O[C@H](CO)[C@@H](O)[C@@H]2O)c(=O)n1` [arabinoside-C]: the “sensitivity to chemotherapy” value in experiment [5] and in experiment [6] was “completely not responsive” in each case.
Turning to `CS(=O)(=O)OCCCCOS(C)(=O)=O` [busulfan], the “sensitivity to chemotherapy” value in experiment [5] and in experiment [6] was “minimally to moderately responsive” throughout.
Turning to `N.N.[Cl][Pt][Cl]` [cisplatin], the cell kill in [1] and in experiment [3] was 30% throughout. Besides, the “sensitivity to chemotherapy” value in [5] is reported as “moderate chemosensitivity”; in experiment [6], “sensitive”.
As for `COc1cccc2c1C(=O)c1c(O)c3c(c(O)c1C2=O)C[C@@](O)(C(=O)CO)C[C@@H]3O[C@H]1C[C@H](N)[C@H](O)[C@H](C)O1` [doxorubicin], the “sensitivity to chemotherapy” value in experiment [5] was “highly sensitive”; in [6], “sensitive”.
As for `O=NN(CCCl)C(=O)NC1CCCCC1` [lomustine], the “sensitivity to chemotherapy” value in experiment [1] and in experiment [3] was “not sensitive” in each case.
For the compound `CN(Cc1cnc2nc(N)nc(N)c2n1)c1ccc(C(=O)N[C@@H](CCC(=O)O)C(=O)O)cc1` [methotrexate], the “sensitivity to chemotherapy” value in experiment [5] and in experiment [6] was “minimally to moderately responsive” throughout.
As to `O=C1[O][Pt]2([NH][C@@H]3CCCC[C@H]3[NH]2)[O]C1=O` [oxaliplatin], the “sensitivity to chemotherapy” value in [1] is listed as “not sensitive”; in [5], “completely not responsive”; in [3], “not sensitive”; in [6] it was “completely not responsive”.
For the compound `CNNCc1ccc(C(=O)NC(C)C)cc1` [procarbazine], the cell kill in experiment [1] and in experiment [3] was 30% throughout.
Take `Cn1nnc2c(C(N)=O)ncn2c1=O` [temozolomide]: the cell kill in experiment [7] amounted to 60%; in experiment [8], 50%; in experiment [9] it was 60%. The “clinical response of the tumor to treatment” value in [10] is reported as “no response”. Besides, the “response score (MTT cell viability)” value in [11] is reported as “non-responsive (non-responsive (0-10% cell kill))”.
On to bevacizumab, for which the “sensitivity to chemotherapy” value in [1] and in experiment [3] was “not sensitive” throughout.

The values are drawn from patent US9316632B2, “Methods of screening chemotherapeutic agents and treating cancer” (Marshall University Research Corporation, priority 2009, dated 2016).
